Measured values from patent US20200383905A1 (priority 2015, published 2020).
Where a name gives a salt, the structure may show the parent alone. Read-outs that look alike come from different tables or passages of the source.

Experiments:
[1] = Example 5: multiple-dose 3-way crossover PK study of two IV regimens vs 100 mg oral Q6h; conditions: for AUCtau 1: first dosing interval; for Cmax: human, plasma, iv, 50 mg, 50 mg IV regimen
Source text: The term “STD” as used herein means standard deviation. […] The term “Css” means steady-state concentration. The term “Cmax” means maximum concentration. The term “AUC” means area under the curve. […] The term “PIT” means peak to trough.

animal model = conditions: cited from earlier work
μ opioid = conditions: animal model; cited from earlier work
[2] = Observed steady-state PK of oral tramadol Q6h (threshold PK parameters); conditions: for AUC / Cmax: human, plasma, po
postoperative pain = conditions: IV or IM intermittent injection, dose titrated to pain response; cited from earlier work
[3] = system: experienced opioid abusers; conditions: tramadol 100 and 200 mg IV, cited from earlier work; for Ratings of feel drug effect compared to placebo / Ratings of liking: morphine 10 and 20 mg IV over 5 minutes; for Ratings of feel drug effect compared to placebo: 10 experienced opioid abusers
rats and dogs = conditions: repeat-dose; cited from earlier work
[4] = oral administration; cited from earlier work
[5] = cited from earlier work
[6] = in vivo; cited from earlier work
[7] = mean cumulative doses 449 to 868.3 mg over 24, 36 and 48 h; cited from earlier work
[8] = plasma 0-desmethyltramadol, tramadol 50 mg IV at h 0, 2, 4 then q4h, mean
[9] = plasma 0-desmethyltramadol, tramadol 75 mg IV at h 0, 3, 6 then q6h, mean
[10] = plasma 0-desmethyltramadol, tramadol 100 mg oral q6h, mean
[11] = 60 mg oral tramadol dose, by extrapolation
[12] = 100 mg oral tramadol Q6h, steady-state, geometric mean, observed
[13] = 120 mg oral tramadol dose, by extrapolation
[14] = plasma tramadol, 50 mg IV at h 0, 2, 4 then q4h, mean
[15] = plasma tramadol, 75 mg IV at h 0, 3, 6 then q6h, mean
[16] = plasma tramadol, 100 mg oral q6h, mean

CN(C)C[C@H]1CCCC[C@]1(O)c1cccc(O)c1 [M1, 0-desmethyltramadol]
AUCtau 1 [1, 8]: 39.93 ng·h/mL | AUCtau n ([1]; plasma 0-desmethyltramadol, tramadol 50 mg IV at h 0, 2, 4 then q4h, last dosing interval, mean): 355.6 ng·h/mL | C48 [1, 8]: 81.7 ng/mL | AUCtau 1 [1, 9]: 108.3 ng·h/mL | C48 [1, 9]: 75.9 ng/mL | AUCtau 1 [1, 10]: 272.1 ng·h/mL | C48 [1, 10]: 111 ng/mL | Cmax(42-48) ([1]; plasma 0-desmethyltramadol, tramadol 100 mg oral q6h, steady-state, mean): about 146 ng/mL | Potency in producing analgesia, times more potent than the parent compound (animal model): 6 times | Potency in μ opioid binding, times more potent than the parent compound (μ opioid): 200 times | M1 AUC6 ([2]; 50 mg oral tramadol dose): 491 ng·h/mL | M1 Cmax ([2]; 50 mg oral tramadol dose): 96 ng/mL | M1 AUC6 [2, 11]: 589 ng·h/mL | M1 Cmax [2, 11]: 115 ng/mL | M1 AUC6 [2, 12]: 668 ng·h/mL | M1 Cmax [2, 12]: 125 ng/mL | M1 AUC6 [2, 13]: 802 ng·h/mL | M1 Cmax [2, 13]: 150 ng/mL

CN1CC[C@]23c4c5ccc(O)c4O[C@H]2[C@@H](O)C=C[C@H]3[C@H]1C5 [morphine]
Reduction of pain intensity after 4 to 6 hours (postoperative pain): 69.8% | Ratings on the ARCI-MBG scale ([3]; morphine 20 mg IV over 5 minutes): increased ratings on the ARCI-MBG scale | Ratings of feel drug effect compared to placebo [3]: significantly increased ratings | Ratings of liking [3]: significantly increased ratings

COc1cccc([C@]2(O)CCCC[C@H]2CN(C)C)c1 (racemic) [Tramadol, (±)cis-2-[(dimethylamino)methyl]-1-(3-methoxyphenyl) cyclohexanol hydrochloride]
Cmax ([1]; Mean Cmax after the first dose, plasma tramadol): ~273 ng/mL | Cmax ([1]; Mean Cmax after the second dose, plasma tramadol): ~451 ng/mL | Cmax ([1]; Mean Cmax concentration after the third administered dose, plasma tramadol): ~666 ng/mL | C48 [1, 14]: 448 ng/mL | Cmax(2-4) [1, 14]: 479 ng/mL | P/T Ratio First [1, 14]: 1.4566 | P/T Ratio Last [1, 14]: 1.6370 | C48 [1, 15]: 354 ng/mL | P/T Ratio First [1, 15]: 2.0658 | P/T Ratio Last [1, 15]: 2.3692 | C48 [1, 16]: 497 ng/mL | P/T Ratio First [1, 16]: 1.9824 | P/T Ratio Last [1, 16]: 1.4400 | Dose with behavioral/clinical signs and convulsions (rats and dogs): > 25 mg/kg/day | Fertility or teratogenic effects [4]: no safety concerns with respect to fertility or teratogenic effects | AUC0-24h ([5]; 100 mg i.v.): 3709 ± 977 ng·h/mL | Vd ([5]; 100 mg i.v.): 203 L | t1/2 ([5]; 100 mg i.v.): 5.2 h | AUC0-24h ([5]; 100 mg p.o.): 2488 ± 774 ng·h/mL | Cmax ([5]; 100 mg p.o.): 280 ± 49 ng/mL | Vd ([5]; 100 mg p.o.): 306 L | Distribution half-life, initial phase ([5]; IV administration): 0.31 ± 0.17 h | Half-life of slower distribution phase ([5]; IV administration): 1.7 ± 0.4 h | Absolute bioavailability with continuous dosing ([5]; oral, continuous dosing (Liao 1992)): 90-100% | Time to reach steady-state [6]: 42 to 48 h | Serious adverse effects [7]: no serious adverse effects were observed | Ratings of feel drug effect compared to placebo [3]: significantly increased ratings | Ratings of liking [3]: neither dose of tramadol increased ratings | AUC ([2]; 50 mg): 1640 ng·h/mL | Cmax ([2]; 50 mg): 340 ng/mL | Cmax ([2]; 60 mg): 408 ng/mL | AUC ([2]; 100 mg): 3230 ng·h/mL | Cmax ([2]; 100 mg): 676 ng/mL | AUC ([2]; 120 mg): 3880 ng·h/mL | Cmax ([2]; 120 mg): 811 ng/mL
